Laboratory results reported in patent US6103888A, “Mammalian cationic proteins having lipopolysaccharide binding and anti-coagulant activity” (priority 1999, dated 2000).

What was measured:
[1] = system: Human plasma; experiment: Partial thromboplastin time (PTT); type: biochemical; settings: dose dependent
Description: Partial thromboplastin time (PTT). Human plasma (100 μl) was incubated with each peptide (100 μl) at 37° C. for 3 min., then 100 μl of CaCl2 containing phospholipid was added and clotting time was measured.

[2] = target: prothrombin (factor II) (Homo sapiens, UniProt P00734); experiment: Prothrombin activation by Echis Carinatus venom (ECV); type: biochemical
Description: Prothrombin activation by Echis Carinatus venom (ECV). A reaction mixture of prothrombin (factor II) (0.1 unit/ml, 200 μl), ECV (1 unit/ml, 200 μl), various concentration of peptide (70 μl), 50 μl of 25 mM-CaCl2 and 180 μl of Tris buffer was incubated at 37° C. for 10 min. To 300 μl of the reaction mixture, 60 μl of 4 mM-thrombin substrate and 240 μl of buffer was added and further incubated for 15 min.

[3] = system: Streptococcus pyogenes; experiment: Bacterial proliferation, 3H-thymidine incorporation assay; type: cell-based
Description: (§1) Bacteria were grown in trypticase broth overnight.
(§2) To corroborate the anti-bacterial activity shown in the CFU assays, inhibition of proliferation of bacteria was tested directly using a ^3 H-thymidine incorporation assay. […] In summary although there is some strain to strain variation in the IC50, all of the Gram-negativestrains tested in two different types of assays were sensitive to these anti-microbial peptides.

[4] = system: E. coli (HB101); experiment: as above; type: cell-based; settings: for Percent inhibition of proliferation: E. coli (HB101)
Description: as §1, §2

[5] = system: Streptococcus pneumoniae; experiment: as above; type: cell-based
Description: as §1, §2

[6] = system: Staphylococcus aureus, coagulase positive; experiment: as above; type: cell-based
Description: as §1, §2

[7] = system: Pseudomonas apacia; experiment: as above; type: cell-based
Description: as §1, §2

[8] = system: Pseudomonas aeruginosa; experiment: as above; type: cell-based
Description: as §1, §2

[9] = system: Klebsiella pneumoniae; experiment: as above; type: cell-based
Description: as §1, §2

[10] = system: ddY mice; experiment: Tissue factor lethality model; type: in vivo; settings: for Survival (%): Tissue factor 1.0 mg/mouse IV
Description: Tissue factor lethality model. Reference tissue factor (simplastin, 1 mg/mouse) was IV injected into ddY mice (male, 20-week-old, 38-45 g) incubated with or without peptide.
^a Tissue factor (Simplastin, 10 mg/ml was mixed with equal volume of
synthetic peptide 100 μg/ml or 50 μg/ml and 0.2 ml of the mixture
injected IV. ddY mice (20 weeks, 38-45 gm).

[11] = system: E. coli 055:B5 LPS; experiment: Inhibition of RNIP-mediated hemagglutination by LPS preparation; type: binding; settings: Peptide #36-1 16 μg/ml, RNIP (#197) 25 μg/ml preincubated with LPS 37° 30 minutes
Description: (§3) For hemagglutination assays, erythrocytes were sensitized with LPS as follows. One ml of 1% erythrocyte suspension (human 0 type, C3H/HeN mouse or sheep) was mixed with 0.2 ml of LPS solution and incubated at 37° C. for 30 min, followed by washing with phosphate buffered saline (PBS), and then the concentration of suspension was adjusted to 1.0%. In the case of S-LPS, the solution was heated at 100° C. for 1 hour before sensitization of erythrocytes. […] Activity of CAP was expressed as a minimum agglutinating concentration (MAC) of CAP. According to the method of Kirikae et al. (1986) Microbiol. Immunol. 30:269-274, 50 μl of 2-fold serial dilution of Re-LPS was added to 50 μl of 1.0% rabbit erythrocyte suspension, and incubated at 37° C. for 3 hour. Minimum agglutinating concentration of Re-LPS was expressed as 1 HA unit.
(§4) Another series of experiments was performed to determine if the #36-1 and #197 (RNIP) peptides were capable of binding to LPS from various species of Gram-negative bacteria. For these experiments, sheep red blood cells were sensitized with Salmonella minnesota Re-LPS. Peptides #36-1 and #197 (RNIP) were preincubated with various preparations of LPS. Both peptides bind to a diverse group of lipopolysaccharides.
(§5) +Peptide #361 (16 μg/ml) and RNIP (#197) (25 μg/ml) were
(§6) preincubated with each LPS preparation at 37° for 30 minutes, and
(§7) each reaction mixture was added to sheep erythrocytes sensitized with […]

[12] = system: E. coli 0111:B4 LPS; experiment: as above; type: binding; settings: Peptide #36-1 16 μg/ml, RNIP (#197) 25 μg/ml preincubated with LPS 37° 30 minutes
Description: as §3, §4, §5, §6, §7

[13] = system: Pseudomonas aeruginosa F-D Type I LPS; experiment: as above; type: binding; settings: Peptide #36-1 16 μg/ml, RNIP (#197) 25 μg/ml preincubated with LPS 37° 30 minutes
Description: as §3, §4, §5, §6, §7

[14] = system: E. coli 0127:B8 LPS; experiment: as above; type: binding; settings: Peptide #36-1 16 μg/ml, RNIP (#197) 25 μg/ml preincubated with LPS 37° 30 minutes
Description: as §3, §4, §5, §6, §7

[15] = system: Salmonella minnesota R595 LPS; experiment: as above; type: binding; settings: Peptide #36-1 16 μg/ml, RNIP (#197) 25 μg/ml preincubated with LPS 37° 30 minutes
Description: as §3, §4, §5, §6, §7

[16] = system: Klebsiella pneumoniae LPS; experiment: as above; type: binding; settings: Peptide #36-1 16 μg/ml, RNIP (#197) 25 μg/ml preincubated with LPS 37° 30 minutes
Description: as §3, §4, §5, §6, §7

[17] = system: E. coli J5 LPS; experiment: as above; type: binding; settings: Peptide #36-1 16 μg/ml, RNIP (#197) 25 μg/ml preincubated with LPS 37° 30 minutes
Description: as §3, §4, §5, §6, §7

RNIP: rabbit reactive nitrogen inhibitory protein, amino acids 135-171 of SEQ ID NO:4; purified from granulocytes (Tables 1-3) or synthetic (#197) (GLRKRLRKFRNKIKEKLKKIGQKIQGLLPKLAPRTDY)
inhibition of the partial thromboplastin time (PTT), in words [1]: inhibited | inhibition of Echis carinatus venom activation of purified factor II to IIa (in words) [2]: inhibited | Percent inhibition of proliferation ([3]; RNIP 0.6 μg/ml): 74% | Percent inhibition of proliferation ([3]; RNIP 1.25 μg/ml): 79% | Percent inhibition of proliferation ([3]; RNIP 2.5 μg/ml): 90% | Percent inhibition of proliferation ([3]; RNIP 5.0 μg/ml): 96% | Percent inhibition of proliferation ([4]; RNIP 0.6 μg/ml): 81% | Percent inhibition of proliferation ([4]; RNIP 1.25 μg/ml): 88% | Percent inhibition of proliferation ([4]; RNIP 2.5 μg/ml): 99% | Percent inhibition of proliferation ([4]; RNIP 5.0 μg/ml): 99% | Inhibition (%) of E. coli (HB101) proliferation ([4]; RNIP 2.5 μg/ml, FCS concentration 0 %): 94 ± 10.3% | Inhibition (%) of E. coli (HB101) proliferation ([4]; RNIP 2.5 μg/ml, FCS concentration 1 %): 91 ± 10.9% | Inhibition (%) of E. coli (HB101) proliferation ([4]; RNIP 2.5 μg/ml, FCS concentration 5 %): 87 ± 3.1% | Inhibition (%) of E. coli (HB101) proliferation ([4]; RNIP 2.5 μg/ml, FCS concentration 10 %): 78 ± 5.5% | Percent inhibition of proliferation ([5]; RNIP 0.6 μg/ml): 31% | Percent inhibition of proliferation ([5]; RNIP 1.25 μg/ml): 47% | Percent inhibition of proliferation ([5]; RNIP 2.5 μg/ml): 68% | Percent inhibition of proliferation ([5]; RNIP 5.0 μg/ml): 93% | Percent inhibition of proliferation ([6]; RNIP 0.6 μg/ml): 23% | Percent inhibition of proliferation ([6]; RNIP 1.25 μg/ml): 57% | Percent inhibition of proliferation ([6]; RNIP 2.5 μg/ml): 72% | Percent inhibition of proliferation ([6]; RNIP 5.0 μg/ml): 83% | Percent inhibition of proliferation ([7]; RNIP 0.6 μg/ml): 81% | Percent inhibition of proliferation ([7]; RNIP 1.25 μg/ml): 80% | Percent inhibition of proliferation ([7]; RNIP 2.5 μg/ml): 99% | Percent inhibition of proliferation ([7]; RNIP 5.0 μg/ml): 99% | Percent inhibition of proliferation ([8]; RNIP 0.6 μg/ml): 75% | Percent inhibition of proliferation ([8]; RNIP 1.25 μg/ml): 82% | Percent inhibition of proliferation ([8]; RNIP 2.5 μg/ml): 96% | Percent inhibition of proliferation ([8]; RNIP 5.0 μg/ml): 99% | Percent inhibition of proliferation ([9]; RNIP 0.6 μg/ml): 4% | Percent inhibition of proliferation ([9]; RNIP 1.25 μg/ml): 14% | Percent inhibition of proliferation ([9]; RNIP 2.5 μg/ml): 17% | Percent inhibition of proliferation ([9]; RNIP 5.0 μg/ml): 60% | Survival (%) ([10]; Peptide #197 5 μg/mouse): 43% | Survival (%) ([10]; Peptide #197 10 μg/mouse, p < 0.05 vs tissue factor control): 57% | reduction of mortality ([10]; tissue factor IV (Simplastin, 1 mg/mouse)): 57% | MIC, minimal inhibitory concentration of LPS [11]: 62.5 µg/mL | MIC, minimal inhibitory concentration of LPS [12]: 31.3 µg/mL | MIC, minimal inhibitory concentration of LPS [13]: 15.6 µg/mL | MIC, minimal inhibitory concentration of LPS [14]: 62.5 µg/mL | MIC, minimal inhibitory concentration of LPS [15]: 62.5 µg/mL | MIC, minimal inhibitory concentration of LPS [16]: 62.5 µg/mL | MIC, minimal inhibitory concentration of LPS [17]: 15.6 µg/mL
